Data on six molecules can be found in US20170028005A1, “NATURAL SWEETENER” (NATGOOD IP, LLC, priority 2014, published 2017).

The test system of data set [1] is blood glucose response. The experiment in a line: A Glycemic Response Test. Particulars: 30 grams in water after fast; blood glucose every 15 minutes for 90 minutes. The format is in vivo.
Description: Under an Institutional Review Board approved, controlled clinical trial, subjects undergo a pre-test fast for at least 20 hours and then consume 30 grams of glucose, or an equal amount of sweetener in water. Blood glucose measurements are then made every 15 minutes for 90 minutes and the blood glucose response is recorded. A sweetener is considered to pass the test when then blood glucose response is less than 5% of glucose.
In data set [2] the test system is blood glucose response. The experiment in a line: A Repression Test. Particulars: product (e.g. cupcake) with other nutritive carbohydrates. On the set-up: key: PASS: pass the repression test when then blood glucose response is much lower than expected for the combination of. The format is in vivo.
Description: Under controlled study scenario subjects fast, then consume a product (e.g. a cupcake) that contains other nutritive carbohydrates and the glycemic response is assessed by established methods. The glycemic response to the nutritive carbohydrates is compared to the glycemic response to the nutritive carbohydrates in the presence of the sweetener or sugar.
The test system of data set [3] is blood glucose level. Particulars: values used for the expected GI; cited from earlier work.
In data set [4] the test system is blood glucose level. The data set can be described thus: Glycemic index (GI) of NSC formulations (Example 2). The format is in vivo, human. On the procedure:
Glycemic index can be measured by any suitable methodology. For example, to determine a food's GI value, measured portions of the food containing 50 grams of available carbohydrate (or 25 grams of available carbohydrate for foods that contain lower amounts of carbohydrate) may be fed to 10 healthy people after an overnight fast. Finger-prick blood samples can be taken at 15-30 minute intervals over the next two hours. These blood samples can be used to construct a blood sugar response curve for the two hour period. The incremental area under the curve (iAUC) is calculated to reflect the total rise in blood glucose levels after eating the test food. The GI value is calculated by dividing the iAUC for the test food by the iAUC for the reference food (same amount of glucose) and multiplying by 100. The average of the GI ratings from all ten subjects is designated as the GI for that food. […] The effect on the GI response for different NSC formulations was assessed. Four formulations, designated F1-F4, containing tagatose, monkfruit, stevia extract, erythritol, xanthan gum and either maltitol or lactitol were prepared as indicated in Table 1. The glycemic index for each formulation was calculated based on the glycemic index for the individual components taking into account the weight percent of the component in the formulation. Monkfruit, xanthan gum, and stevia extract have a glycemic index of 0, erythritol has a glycemic index of 1 while tagatose has a glycemic index of 3. Maltitol has a glycemic index of 35 while lactitol has a glycemic index of 5. Fifteen subjects were evaluated and the GI calculated as described previously herein.

A further data set can be described thus: The Caramelization Test. Format: physicochemical. Particulars: 1 cup sweetener with 1/2 cup water until it browns. An excerpt: 1 cup of caramelized sugar or 1 cup of sweetener is mixed with ½ cup of water and swirled to mix until it browns. A sweetener is considered to pass the test and be enough like sugar when it browns within 25% of the time when the sugar browns.

The nature of data set [5]: Acute randomized controlled trial: adverse events symptom score. Format: in vivo, human. On the procedure:
An acute randomized controlled trial was carried out to investigate the effects of an NSC of the type disclosed herein on postprandial insulin, glucose and fructose responses.
Subjects (N=15) men and non-pregnant, non-lactating women, 18-75 years of age each with a BMI of 18-40 kg/m^2 inclusive and normal glycemia and (i) fasting serum glucose <126 mg/dl (<7.0 mmol/l) (or in whole blood ≦6.1 mmol/L); (ii) blood pressure <130/85; (iii) no prescription drugs within 1 month of the first study visit after screening except for the birth control pill, lipid lowering medications or small doses of anxiolytics/sedatives to assist sleeping; and (iv) no major illness or surgery requiring hospitalization within 3 months of the first study visit after screening.
The test foods consisted of 2 isovolumetric beverages: 30 g sucrose control and 30 g of sweetener blend dissolved in 500 ml water. The sucrose test meal acted as the control. Test meals were administered in a randomized order.
Adverse events reported following ingestion of the meals containing either an NSC of the type disclosed herein or sucrose included bloating, belching, nausea, diarrhea and flatulence. Each issue was scored and record for the time period indicated in Table 5 which provides the symptom score (mm) for: Bloating, Belching, Nausea, Diarrhea and Flatulence at 0 min, 120 min, before Dinner (D) and before breakfast (B).

With `O=C(CO)C(O)C(O)C(O)CO` (stereo not shown) [Allulose], in the data set with blood glucose response [1], the Glycemic test entry was “PASS (pass the test when then blood glucose response is less than 5% of glucose)”. Further, the Repression test result with blood glucose response [2] is listed as “PASS”.
`OC[C@@H](O)[C@@H](O)CO` [Erythritol, erythritol]: the Glycemic test entry with blood glucose response [1] was “PASS (pass the test when then blood glucose response is less than 5% of glucose)”. For the same molecule, in the data set on blood glucose response [2], the Repression test result was “FAIL”. Further, the “glycemic index of individual component” value in the data set with blood glucose level [3] is reported as 1.
Consider `OC[C@@H](O)[C@@H](O[C@H]1O[C@H](CO)[C@@H](O)[C@H](O)[C@H]1O)[C@H](O)[C@@H](O)CO` [Maltitol, maltitol], for which the “glycemic index of individual component” value in the data set with blood glucose level [3] is given as 35.
With `OC[C@H]1O[C@@](CO)(O[C@H]2O[C@H](CO)[C@@H](O)[C@H](O)[C@H]2O)[C@@H](O)[C@@H]1O` [Sugar, sucrose], the “Expected GI” value with blood glucose level [4] (calculated from GI of individual components and their weight percent) is 65. Besides, in the data set with blood glucose level [4] (fifteen subjects), the “Observed GI” value worked out at 65. Moreover, the “Glycemic Index” value with blood glucose level [4] (sweetener ingredient of the cake mix, Table 2) is recorded as 65 for sugar. In the data set “The Caramelization Test”, the Caramelization test entry was “PASS (pass the test and be enough like sugar when it browns within 25% of the time when the sugar browns)”. For the same molecule, the Glycemic test entry in the data set on blood glucose response [1] was “FAIL”. In the data set on blood glucose response [2], the Repression test result is reported as “FAIL”. In data set [5] (0 min), the Belching symptom score is 0.60 mm, the Bloating symptom score is reported as 7.93 mm, the Diarrhea symptom score is given as 0.27 mm and the Flatulence symptom score was determined as 1.47 mm. In data set [5] (0 min), this molecule had a Nausea symptom score of 0.33 mm. Moreover, in data set [5] (120 min), the Belching symptom score is listed as 0.40 mm, the Bloating symptom score worked out at 4.67 mm, the Diarrhea symptom score came to 0.80 mm and the Flatulence symptom score is reported as 1.40 mm. In data set [5] (120 min), this molecule had a Nausea symptom score of 1.87 mm. In data set [5] (before Dinner (D)), the Belching symptom score came to 1.79 mm, the Bloating symptom score turned out to be 5.43 mm, the Diarrhea symptom score stood at 6.93 mm and the Flatulence symptom score was determined as 8.93 mm. This molecule registered a Nausea symptom score in data set [5] (before Dinner (D)) of 2.57 mm. In data set [5] (before breakfast (B)), this molecule came in with a Belching symptom score of 0.57 mm, a Bloating symptom score of 5.71 mm, a Diarrhea symptom score of 5.79 mm and a Flatulence symptom score of 7.50 mm. Moreover, in data set [5] (before breakfast (B)), the Nausea symptom score was 0.57 mm.
Regarding `O=C(CO)[C@@H](O)[C@@H](O)[C@H](O)CO` [Tagatose, (3S,4S,5R)-1,3,4,5,6-pentahydroxy-hexan-2-one], the Caramelization test entry in the data set “The Caramelization Test” is listed as “FAIL-”. Also, the Glycemic test result in the data set with blood glucose response [1] is listed as “PASS (pass the test when then blood glucose response is less than 5% of glucose)”. For the same molecule, in the data set on blood glucose response [2], the Repression test result was “FAIL”. The “glycemic index of individual component” value with blood glucose level [3] was 3.
Regarding `OC[C@@H](O)[C@@H](O[C@@H]1O[C@H](CO)[C@H](O)[C@H](O)[C@H]1O)[C@H](O)[C@@H](O)CO` [lactitol], in the data set on blood glucose level [3], the “glycemic index of individual component” value was 5.
